≈ marks a conversion by molar mass, not a printed value. Where two headings read alike, the source gives them in different places.
How the values were obtained:
[1] = Solubility in pH controlled solutions and intravenous formulations; format: physicochemical
Experimental: Solubility of prostratin and SA-101B was measured in pH controlled solutions and in various representative formulations, in particular, intravenous formulations, where solubility is often a limiting factor.

SIVMac251 = assay: PBMC antiviral assay, SIVMac251; format: cell-based, SIV; conditions: SIVMac251, human PBMCs
Experimental: Compounds SA-101A and SA-101B were tested for antiviral activity against HIV-1 in peripheral blood mononuclear cells (PBMC) acutely infected with the HIV-1 isolates. PBMCs were derived from normal HIV-1 negative donors, and cultured under conditions which promote cell survival and HIV replication. Fresh human blood was obtained commercially from Biological Specialty Corporation (Colmar, Pa.). The low passage clinical isolates HIV-1Ba-L, HIVIIIB, and SIVmac251 were from the NIAID AIDS Research and Reference Reagent Program. Immediately before use, pre-titered aliquot of the viruses were removed from storage in a freezer (−80° C.) and thawed rapidly to room temperature in a biological safety cabinet. Phytohemagglutinin (PHA-P) was obtained from Sigma (St. Louis, Mo.) and recombinant IL-2 was obtained from R&D Systems Inc. (Minneapolis, Minn.). Antiviral activity was tested from a high-test concentration of 100 μM or 100 μg/ml with nine ½-log serial dilutions of the compound to derive applicable IC50 (concentration inhibition virus replication by 50%), IC90 (concentration inhibition virus replication by 90%), TC50 (concentration decreasing cell viability by 50%) and TI (therapeutic index: TC50/IC50) values.
Preparation of PMBC. Fresh Human PBMCs, Seronegative for HIV and HBV, were isolated from screened donors (Interstate Blood Bank, Inc. Memphis, Tenn.). Cells were pelleted/washed 2-3 times by low speed centrifugation and resuspensded in PBS to remove contaminating platelets. The leukophoresed blood was then diluted 1:1 with Dulbecco's Phosphate Buffered Saline (DPBS) and layered over 14 mL of Lymphocyte Separation Medium (LSM; Cellgro® by Mediatech, Inc.; density 1.078+/−0.002 g/ml; Cat. # 85-072-CL) in a 50 mL centrifuge tube and then centrifuged for 30 minutes at 600×g. […]
PMBC assay. […] Pooling (mixing) of mononuclear cells from more than one donor is used to minimize the variability observed between individual donors, which results from quantitative and qualitative differences in HIV infection and overall response to the PHA and IL-2 of primary lymphocyte populations. […]

[2] = tested on: cell line ET (luc-ubi-neo/ET), human Huh7 hepatoma; assay: CytoTox-ONE cytotoxicity in ET (luc-ubi-neo/ET) Huh7 cells; format: cell-based
Experimental: Luciferase assay. The ET cell line is grown in Dulbecco's modified essential media (DMEM), 10% fetal bovine serum (FBS), 1% penicillin-streptomycin (pen-strep), 1% glutamine, […] G418 in a 5% CO2 incubator at 37° C. All cell culture reagents are from Gibco Life Technologies. Cells are trypsinized (1% trypsin:EDTA) and plated out at 5×10^3 cells/well in white 96-well assay plates (Costar) dedicated to cell number (cytotoxicity) or antiviral activity (Luc) assessments. Drugs are added at five half-log concentrations each and the assay is run in DMEM, 5% FBS, 1% pen-strep, 1% glutamine. Human interferon alpha-2b (PBL Biolabs, New Brunswick, N.J.) is included in each run as a positive control compound. […] Compound IC50 and IC90 values (antiviral activity) are derived from plots of HCV RNA levels assessed as HCV RNA replicon-derived Luc activity versus drug concentration using Steady-Glo assay reagent (Promega), with Luc luminescence read on a 1450 Microbeta liquid scintillation and luminescence counter. Compound TC50 and TC90 values (cytotoxicity) are calculated from plots of cell number vs. drug concentration using data from the CytoTox-ONE cell proliferation assay (Promega); with fluorescence read using an Analyst HT fluorometer. […] Compound selectivity indices (SI=TC/IC) SI50 and SI90 values are calculated from spreadsheets.

SMILES	Solubility 5% Dextrose ([1]; 5% Dextrose)	Solubility Saline (0.9% NaCl) ([1]; Saline (0.9% NaCl))	Solubility compared with prostratin ([1]; all media)	Solubility pH 1 ([1]; pH 1)	Solubility pH 2 ([1]; pH 2)	Solubility pH 5 ([1]; pH 5)	Solubility pH 7.5 ([1]; pH 7.5)	Solubility pH 9 ([1]; pH 9)	IC90 (SIVMac251; 40% Human AB serum)	Cytotoxicity [2]	solubility ([1]; 5% dextrose (intravenous formulation), saline or isotonic, read-out: Solubility 5% Dextrose)	solubility ([1]; pH controlled solution, pH 1, simulated gastric fluid, read-out: Solubility pH 1)	solubility ([1]; pH controlled solution, pH 2, simulated gastric fluid, read-out: Solubility pH 2)	solubility ([1]; pH controlled solution, pH 5, aqueous buffer, read-out: Solubility pH 5)	solubility ([1]; pH controlled solution, pH 7.5, aqueous buffer, read-out: Solubility pH 7.5)	solubility ([1]; pH controlled solution, pH 9, aqueous buffer, read-out: Solubility pH 9)	solubility ([1]; saline (0.9% NaCl) (intravenous formulation), saline or isotonic, read-out: Solubility Saline (0.9% NaCl))	IC50 (SIVMac251; Simian immunodeficiency virus, PBMC)	IC90 (SIVMac251; Simian immunodeficiency virus, PBMC, read-out: IC90)
CC(=O)OC12CC(C)C3(O)C(C=C(COC(=O)CCC(=O)O)CC4(O)C(=O)C(C)=CC43)C1C2(C)C (centres unmarked) [SA-101B, Prostratin Succinate]	>10000 µg/mL	>10000 µg/mL	better solubility than prostratin	1.21 mg/mL	4.46 mg/mL	7.72 mg/mL	11.20 mg/mL	12.08 mg/mL	>1.00 µg/mL	did not display any appreciable cytotoxicity	–	–	–	–	–	–	–	–	–
CC(=O)O[C@@]12C[C@@H](C)[C@@]3(O)[C@@H](C=C(CO)C[C@]4(O)C(=O)C(C)=C[C@@H]34)[C@@H]1C2(C)C [SA-101A, 12-deoxyphorbol 13-acetate]	–	–	–	–	–	–	–	–	–	did not appear to be active or cytotoxic	330 µg/mL (≈ 845 µM)	370 µg/mL (≈ 948 µM)	370 µg/mL (≈ 948 µM)	450 µg/mL (≈ 1150 µM)	420 µg/mL (≈ 1080 µM)	390 µg/mL (≈ 999 µM)	340 µg/mL (≈ 871 µM)	0.39 µg/mL (≈ 0.999 µM)	0.9 µg/mL (≈ 2.3 µM)
